We go through 59 molecules from ChEMBL document CHEMBL3217453, “Aminomethyl substituted thieno[2,3-d]pyrimidines as adenosine A2A receptor antagonists” (Medchemcomm, 2011).

The Ki is the dissociation constant of the complex between target and ligand, obtained from inhibition or displacement. Lower therefore signals higher affinity. One may read the ED50 as the midpoint of the dose-response relation.

Active and inactive are the calls of the source. The calls are words filed in the database; no cut-off is given here.

In one experiment the target is Adenosine receptor A2a (Homo sapiens, UniProt P29274). Briefly: Antagonist activity at human adenosine A2A receptor expressed in CHO-K1 cells preincubated for 15 mins before NECA addition measured after 5.5 to 6 hrs by beta-galactosidase reporter gene assay. The class given is functional, cell-based. On the technique in general: In a reporter assay the amount or activity of a reporter protein is the signal.

Experiment [1] relates to Mus musculus. Briefly: Reversal of haloperidol-induced catalepsy in balb/c mouse at 10 mg/kg, po compound administered 30 mins post challenge. The experiment is classed as functional.
Another experiment concerns the target T1, Adenosine receptor A1 (Homo sapiens, UniProt P30542).
T1 sequence (P30542 whole entry): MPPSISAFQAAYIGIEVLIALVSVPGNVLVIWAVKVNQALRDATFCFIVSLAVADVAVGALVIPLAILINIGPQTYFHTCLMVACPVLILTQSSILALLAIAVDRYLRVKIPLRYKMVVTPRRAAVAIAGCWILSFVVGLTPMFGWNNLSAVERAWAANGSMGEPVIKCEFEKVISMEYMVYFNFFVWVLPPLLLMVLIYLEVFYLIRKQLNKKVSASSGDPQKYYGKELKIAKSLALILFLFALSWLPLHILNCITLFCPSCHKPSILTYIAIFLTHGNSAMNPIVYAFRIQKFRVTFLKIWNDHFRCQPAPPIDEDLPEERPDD
The experiment in a line: Antagonist activity at human adenosine A1 receptor expressed in CHO-K1 cells preincubated for 15 mins before r-PIA addition measured after 5.5 to 6 hrs by beta-galactosidase reporter gene assay. The experiment is classed as cell-based.

Experiment [2] deals with Mus musculus. The experiment in a line: Reversal of haloperidol-induced catalepsy in po dosed balb/c mouse compound administered 30 mins post challenge. The class given is functional. The note with it: 0.5 h.

Chain of Adenosine receptor A2a (P29274 whole entry): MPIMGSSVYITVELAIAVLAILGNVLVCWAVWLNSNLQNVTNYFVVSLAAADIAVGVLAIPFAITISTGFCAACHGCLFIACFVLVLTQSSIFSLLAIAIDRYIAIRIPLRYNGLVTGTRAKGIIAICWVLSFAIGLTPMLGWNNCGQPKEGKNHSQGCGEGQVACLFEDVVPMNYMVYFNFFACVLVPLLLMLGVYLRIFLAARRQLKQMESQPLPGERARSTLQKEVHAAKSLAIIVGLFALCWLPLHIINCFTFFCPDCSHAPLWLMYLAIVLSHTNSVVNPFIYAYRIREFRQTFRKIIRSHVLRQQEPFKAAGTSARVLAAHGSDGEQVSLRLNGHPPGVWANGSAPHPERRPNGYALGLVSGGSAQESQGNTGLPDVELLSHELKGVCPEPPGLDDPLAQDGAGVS

With `CN(C)Cc1cc2c(N)nc(-c3ccco3)nc2s1`, the Ki on Adenosine receptor A2a came out at 140 nM.

Turning to `C[C@@H]1CCC[C@H](C)N1Cc1cc2c(N)nc(-c3ccc(C(F)F)o3)nc2s1`, the Ki at Adenosine receptor A2a amounted to 28.6 nM. Moreover, the outcome with Mus musculus [1] was inactive.

`C[C@@H]1CCC[C@H](C)N1Cc1cc2c(N)nc(-c3ccc(C4CC4)o3)nc2s1` showed a Ki on Adenosine receptor A2a of 110 nM. This lies in the sub-micromolar range.

As for `Nc1nc(-c2ccc(C(F)F)o2)nc2sc(CN3CCOCC3)cc12`, the result in the experiment on Mus musculus [1] was inactive.

Turning to `CC(C)c1ccc(-c2nc(N)c3cc(CN4[C@H](C)CCC[C@@H]4C)sc3n2)o1`, the figures for the Ki at Adenosine receptor A2a and on Adenosine receptor A1 were 17 nM and 140 nM, respectively. Also, the result with Mus musculus [1] was inactive.

On to `CCc1ccc(-c2nc(N)c3cc(CN4[C@H](C)CCC[C@@H]4C)sc3n2)o1`, for which the Ki at Adenosine receptor A2a was 25.2 nM; at Adenosine receptor A1 it was 190 nM.

Regarding `Nc1nc(-c2ccco2)nc2sc(CN3CCC(F)C3)cc12` (stereo unspecified), the Ki at Adenosine receptor A2a is 10.3 nM. In the experiment on Mus musculus [1], the outcome was inactive.

Consider `Nc1nc(-c2ccco2)nc2sc(CN3CCC(F)CC3)cc12`, for which the Ki on Adenosine receptor A2a amounted to 19.7 nM. The ED50 in the experiment on Mus musculus [2] was below 1 mg/kg.

`Nc1nc(-c2ccc(C(F)F)o2)nc2sc(CN3CCCC(F)(F)C3)cc12` registered a Ki on Adenosine receptor A2a of 43.2 nM. In other words, the double-digit nanomolar range.

For `Nc1nc(-c2ccco2)nc2sc(CNC3CCCCC3)cc12`, the inhibition constant Ki on Adenosine receptor A2a was determined as 170 nM.

As for `Nc1nc(-c2ccc(Cl)o2)nc2sc(CN3CCC(F)CC3)cc12`, the Ki at Adenosine receptor A2a worked out at 36.7 nM.

For the molecule `C[C@@H]1CCC[C@H](C)N1Cc1cc2c(N)nc(-c3ccc(Br)o3)nc2s1`, the affinity on Adenosine receptor A1, expressed as Ki, was 40.2 nM.

Turning to `N#Cc1cccc(-c2nc(N)c3cc(CN4CCOCC4)sc3n2)c1`, in the experiment with Mus musculus [2], the ED50 was below 1 mg/kg.

`Nc1nc(-c2ncco2)nc2sc(CN3CC=CC3)cc12`: the results for the Ki at Adenosine receptor A2a and at Adenosine receptor A1 were 240 nM and 3890 nM, respectively.

`N#Cc1cccc(-c2nc(N)c3cc(CN4CCCC4)sc3n2)c1` gave a Ki on Adenosine receptor A2a above 10000 nM.

For `Nc1nc(-c2ccco2)nc2sc(CN3CCSCC3)cc12`, the Ki at Adenosine receptor A2a was determined as 9.2 nM; on Adenosine receptor A1 it was 369 nM. Further, the ED50 in the experiment on Mus musculus [2] worked out at 3.2 mg/kg.

Turning to `Nc1nc(-c2cccc([N+](=O)[O-])c2)nc2sc(CN3CCC(F)CC3)cc12`, the Ki at Adenosine receptor A2a is 3760 nM; on Adenosine receptor A1, above 10000 nM.

Consider `CN(C)C(=O)c1cccc(-c2nc(N)c3cc(CN4CCC(F)CC4)sc3n2)c1`, for which the Ki was 2250 nM at Adenosine receptor A2a and above 10000 nM at Adenosine receptor A1.

Turning to `Nc1nc(-c2ccc(Cl)o2)nc2sc(CN3CCOCC3)cc12`, the Ki at Adenosine receptor A2a is 45.4 nM; at Adenosine receptor A1, 640 nM.

In the case of `Nc1nc(-c2ccccc2C(F)(F)F)nc2sc(CN3CCC(F)CC3)cc12`, the Ki on Adenosine receptor A2a and at Adenosine receptor A1 was above 10000 nM in each case.

Regarding `Nc1nc(-c2ccc(Cl)o2)nc2sc(CN3CCCC3)cc12`, in the experiment on Mus musculus [1], the outcome was inactive.

In the case of `Nc1nc(-c2ccco2)nc2sc(CN3CCCC(F)(F)C3)cc12`, the ED50 with Mus musculus [2] is below 1 mg/kg. Also, the affinity on Adenosine receptor A1, expressed as Ki, was 290 nM.

In the case of `Nc1nc(-c2ccc(Cl)o2)nc2sc(CN3CCC(F)(F)C3)cc12`, the Ki at Adenosine receptor A2a came to 15.9 nM; at Adenosine receptor A1, 245 nM.

As for `Cc1ccc(-c2nc(N)c3cc(CN4CCCC4)sc3n2)o1`, the result in the experiment with Mus musculus [1] was inactive.

At Adenosine receptor A2a, `Nc1nc(-c2ccco2)nc2sc(CN3CCC(F)(F)C3)cc12` came in with a Ki of 8.7 nM. Moreover, the 50% effective dose (ED50) with Mus musculus [2] was 10 mg/kg.

On to `Nc1nc(-c2ccco2)nc2sc(CN3CCOCC3)cc12`, for which the figures for the Ki at Adenosine receptor A2a and at Adenosine receptor A1 were 29 nM and 1680 nM, respectively. The ED50 with Mus musculus [2] amounted to 1.3 mg/kg.

As for `Nc1nc(-c2ccco2)nc2sc(CN3CCCCCC3)cc12`, the Ki at Adenosine receptor A2a was 27.6 nM; at Adenosine receptor A1, 1170 nM.

In the case of `Cc1ccc(-c2nc(N)c3cc(CN4CCCCC4)sc3n2)o1`, on Adenosine receptor A2a, the affinity, expressed as Ki, was 28.8 nM. The result in the experiment on Mus musculus [1] was inactive.

Turning to `Nc1nc(-c2ccc(Cl)o2)nc2sc(CN3CC=CCC3)cc12`, the Ki at Adenosine receptor A2a came to 11 nM; on Adenosine receptor A1 it was 190 nM.

Take `Nc1nc(-c2nccs2)nc2sc(CN3CCOCC3)cc12`: the Ki on Adenosine receptor A2a was 250 nM.

Turning to `Nc1nc(-c2ncco2)nc2sc(CN3CC=CCC3)cc12`, the Ki at Adenosine receptor A2a was found to be 240 nM; on Adenosine receptor A1, 2960 nM.

Turning to `N#Cc1cccc(-c2nc(N)c3cc(CN4CCSCC4)sc3n2)c1`, the Ki on Adenosine receptor A2a stood at 50.9 nM; on Adenosine receptor A1, 980 nM.

Regarding `Nc1nc(-c2ccc(C(F)(F)F)cc2)nc2sc(CN3CCC(F)CC3)cc12`, the Ki was above 10000 nM on Adenosine receptor A2a and 3560 nM on Adenosine receptor A1.

`Nc1nc(-c2ccc(Cl)o2)nc2sc(CN3CC=CC3)cc12` came in with a Ki on Adenosine receptor A2a of 10 nM. For the same molecule, in the experiment with Mus musculus [1], the outcome was inactive.

Consider `Nc1nc(-c2ccco2)nc2sc(CN3CC=CC3)cc12`, for which the Ki at Adenosine receptor A2a is 7.2 nM; on Adenosine receptor A1, 290 nM. Besides, the ED50 in the experiment on Mus musculus [2] is below 0.1 mg/kg.

Turning to `Nc1nc(-c2ccc(Br)o2)nc2sc(CN3CCCC3)cc12`, the Ki on Adenosine receptor A2a is 22.5 nM; at Adenosine receptor A1, 710 nM. For the same molecule, the result in the experiment on Mus musculus [1] was inactive.

Regarding `CC(C)c1ccc(-c2nc(N)c3cc(CN4CCOCC4)sc3n2)o1`, the Ki was above 1360 nM on Adenosine receptor A2a and above 600 nM on Adenosine receptor A1.

At Adenosine receptor A2a, `N#Cc1ccc(-c2nc(N)c3cc(CN4CC=CCC4)sc3n2)cc1` displayed an inhibition constant (Ki) of 180 nM.

For the molecule `N#Cc1cccc(-c2nc(N)c3cc(CN4CCC(F)CC4)sc3n2)c1`, on Adenosine receptor A2a, the Ki turned out to be 54.4 nM. For the same molecule, the ED50 with Mus musculus [2] is below 1 mg/kg.

In turn, `C[C@@H]1CCC[C@H](C)N1Cc1cc2c(N)nc(-c3ccco3)nc2s1` had a Ki at Adenosine receptor A2a of 5.3 nM. In other words, the single-digit nanomolar range.

As for `N#Cc1cccc(-c2nc(N)c3cc(CN4CCCC(F)(F)C4)sc3n2)c1`, the Ki at Adenosine receptor A2a was determined as 39 nM; on Adenosine receptor A1, 840 nM. In the experiment with Mus musculus [2], the ED50 was below 1 mg/kg.

Turning to `Nc1nc(-c2ccccc2)nc2sc(CN3CCOCC3)cc12`, the Ki was 995 nM at Adenosine receptor A2a and above 5000 nM on Adenosine receptor A1.

Consider `Nc1nc(-c2ccco2)nc2sc(CN3CCCC3)cc12`, for which the outcome in the experiment with Mus musculus [1] was inactive.

Turning to `Nc1nc(-c2ccc(Cl)o2)nc2sc(CN3CCCC(F)(F)C3)cc12`, the Ki was 9.1 nM at Adenosine receptor A2a and 188 nM on Adenosine receptor A1.

Take `Cc1csc(-c2nc(N)c3cc(CN4CCOCC4)sc3n2)n1`: the Ki on Adenosine receptor A1 was above 930 nM.

`Nc1nc(-c2cccc(C(F)(F)F)c2)nc2sc(CN3CCC(F)CC3)cc12`: the Ki was above 10000 nM on Adenosine receptor A2a and 3030 nM on Adenosine receptor A1.

Take `Nc1nc(-c2cccc(F)c2)nc2sc(CN3CCOCC3)cc12`: the Ki at Adenosine receptor A2a was 110 nM.

The molecule `N#Cc1ccc(-c2nc(N)c3cc(CN4CCC(F)CC4)sc3n2)cc1` showed a Ki at Adenosine receptor A2a of 390 nM.

`Nc1nc(-c2cccc(Cl)c2)nc2sc(CN3CCOCC3)cc12` returned a Ki at Adenosine receptor A2a of 120 nM.

Consider `Nc1nc(-c2ccco2)nc2sc(CN3CC=CCC3)cc12`, for which the Ki at Adenosine receptor A2a was 6.5 nM; on Adenosine receptor A1, 150 nM. Besides, the ED50 with Mus musculus [2] is below 3 mg/kg.

As to `Nc1nc(-c2ccc(Br)o2)nc2sc(CN3CCOCC3)cc12`, the Ki on Adenosine receptor A2a was 30 nM; at Adenosine receptor A1 it was 725 nM.

In the case of `Nc1nc(-c2ccco2)nc2sc(CNC3CC3)cc12`, in the experiment on Mus musculus [1], the result was inactive.

For the molecule `Nc1nc(-c2ccc(C3CC3)o2)nc2sc(CN3CCOCC3)cc12`, the Ki at Adenosine receptor A1 is above 1100 nM.

For the molecule `CCc1ccc(-c2nc(N)c3cc(CN4CCOCC4)sc3n2)o1`, the Ki on Adenosine receptor A1 is above 610 nM.

Take `Nc1nc(-c2cccs2)nc2sc(CN3CCCC3)cc12`: the Ki on Adenosine receptor A2a was 110 nM; on Adenosine receptor A1 it was above 10000 nM.

For `Nc1nc(-c2cccs2)nc2sc(CN3CCOCC3)cc12`, the Ki at Adenosine receptor A2a turned out to be 125 nM; at Adenosine receptor A1 it was 1020 nM.

On to `CS(=O)(=O)c1cccc(-c2nc(N)c3cc(CN4CCC(F)CC4)sc3n2)c1`, for which the Ki on Adenosine receptor A2a and at Adenosine receptor A1 was above 10000 nM each time.

Regarding `Nc1nc(-c2cccc(C(F)(F)F)c2)nc2sc(CN3CC=CC3)cc12`, at Adenosine receptor A1, the affinity, expressed as Ki, was 2960 nM.

With `Nc1nc(-c2ccco2)nc2sc(CN3CCC(F)(F)CC3)cc12`, the Ki at Adenosine receptor A2a came to 49.6 nM. This lies in the double-digit nanomolar range.
